# Results published in patent US20240327415A1, “Multicomponent Complexes, Including Salts, Crystalline Forms, and Hydrates and Solvates of ENT1 Inhibitors” (iTeos Belgium SA, priority 2023, published 2024).
# Columns and labels:
# ENT1 = molecular target: T1, ENT1 (Homo sapiens, UniProt Q99808); assay: ENT1 activity: intracellular uptake of 5-Ethynyl-Uridine (5EU) in whole blood, CD19 positive cells, flow cytometry; format: cell-based; details: 5EU 60 min at 37° C.
# T1 construct: endogenous in cells; host or cells: CD19-positive cells (B cells) in whole blood from healthy donors
# T1 sequence (Q99808 1-456): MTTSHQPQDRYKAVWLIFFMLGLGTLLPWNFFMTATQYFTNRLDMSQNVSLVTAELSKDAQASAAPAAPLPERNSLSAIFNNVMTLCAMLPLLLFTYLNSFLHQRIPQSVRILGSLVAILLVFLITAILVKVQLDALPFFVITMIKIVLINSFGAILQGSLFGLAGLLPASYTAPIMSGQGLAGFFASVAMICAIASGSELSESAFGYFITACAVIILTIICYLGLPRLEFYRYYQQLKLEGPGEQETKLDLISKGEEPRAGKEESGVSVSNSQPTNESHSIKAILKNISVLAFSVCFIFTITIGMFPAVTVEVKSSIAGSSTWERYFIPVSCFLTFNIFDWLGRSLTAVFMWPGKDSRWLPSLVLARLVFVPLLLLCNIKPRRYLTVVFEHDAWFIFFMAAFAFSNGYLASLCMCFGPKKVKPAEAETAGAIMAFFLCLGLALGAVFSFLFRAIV
# Method: Example 20-ENT1 Activity of Crystalline Form 2 Compound 1 di(hydrogen sulfate) trihydrate compared to Compound 1 (free base)-Initial and after Six-Month Storage: (1) Initial time: Whole blood from 8 healthy donors was incubated with 5-Ethynyl-Uridine (5EU, CAS #: 69075-42-9, Jena Bioscience) for 60 min at 37° C., in the absence or presence of freshly suspended 1 μM Compound 1 (free base) or 1 μM Form 2 Compound 1 di(hydrogen sulfate) trihydrate. Intracellular uptake of 5EU through ENT1 transporters was assessed by standard flow cytometry and ENT1 activity was determined.
# In FIG. 101, the data are expressed as % of ENT1 activity in untreated CD19 cells, arbitrary set at 100%, and are the means±SD of three independent experiments. Statistical analysis was performed using one-way analysis of variance (ANOVA) followed by Tukey's post hoc analysis with Prism 10.1.2 software (GraphPad Software). *: p<0.0001 vs. untreated B cells; ns: non-significant.
# (2) Six months: Compound stability was evaluated on suspended solutions of Compound 1 (free base) or Form 2 Compound 1 di(hydrogen sulfate) trihydrate that were stored at −20° C. for 6 months. On the day of the experiment, whole blood from 3 healthy donors was incubated with 5-Ethynyl-Uridine (5EU, CAS #: 69075-42-9, Jena Bioscience) for 60 min at 37° C., in the absence or presence of either 1 μM Compound 1 (free base) or 1 μM Form 2 Compound 1 di(hydrogen sulfate) trihydrate of 6-month-old solutions. Intracellular uptake of 5EU through ENT1 transporters was assessed by standard flow cytometry and ENT1 activity was determined.
# In FIG. 102, the data are expressed as % of ENT1 activity in untreated CD19 cells, arbitrary set at 100%, and are the means±SD. Statistical analysis was performed using two-way analysis of variance (ANOVA) with Prism 10.1.2 software (GraphPad Software). *: p<0.05 vs. untreated B cells; **: p<0.01 vs. untreated B cells; ns: non-significant.
# [1] = salt screen, XRPD of damp, dried and 40° C./75% RH stored samples (Salt Preparation Methods 1 and 2); format: physicochemical; design: key: A = amorphous; 1 = Form 1 Compound 1 hydrogen chloride; PC = poorly crystalline; details: AS Heptane
# Method: (§1) Salt Preparation Method 1: Approximately 25 mg of Compound 1 (free base) was weighed out into 1.5 mL screw-cap vials and a stirrer bar was added. For solid counterions, the appropriate amount of acid (1.0 or 2.0 equiv.) was weighed into separate 1.5 mL screw-cap vials. 100 μL of the appropriate solvent system was added to both the Compound 1 and the solid counterions. Stock solutions of liquid counterions were prepared, such that 100 μL contained 1.0 or 2.0 equiv. of acid. See counterion and solvent lists in Table 60 and Table 61 respectively.
# (§2) The samples were stirred at 40° C. for 5-10 min and then the acid solutions were added to Compound 1, rinsing out the transfer vial with a further 50 μL of solvent. […] Experiments were temperature cycled between 40° C. and 5° C. (1 h hold; 0.1° C./min ramp/cool) for ca. 24-68 h. Anti-solvent addition (ASA) was carried out to slurries at 5° C. then experiments were heated to 30° C. over 1 h. ASA was carried out at 30° C. or 40° C. where clear solutions or gums were observed.
# (§3) Temperature cycling was then continued for ca. 16-69 h, followed by further ASA and temperature cycling if required. Material was isolated at 5° C. and analyzed damp by XRPD. All isolated material was dried under vacuum at ca. 40° C. for ca. 17-91 h then re-analyzed by XRPD. The XRPD plate was stored at 40° C./75% RH for 24-48 h and then samples re-analyzed. Solutions were stored uncapped at ambient temperature to evaporate. Any residual solids were analyzed by XRPD.
# (§4) Salt Preparation Method 2: The general procedure adopted in preparing the potential salts is outlined below. A known mass of Compound 1 (free base) and a known volume of the appropriate solvent system were added to 20 mL scintillation vials. The required mol. equiv. of the appropriate counterions were added to the vials as solutions or slurries in the corresponding solvent system.
# (§5) The experiments were stirred at 40° C. for ca. 1 h, and then temperature cycled between 40° C. and 5° C. with 0.1° C./min ramp and 1 h hold between each step. Anti-solvent additions and subsequent slurrying at 5° C. were employed in order to facilitate crystallization. […] The damp and dried solids were subsampled and analyzed by XRPD. Where applicable, the dried solids were stored at 40° C./75% RH for 24-48 h in order to improve the crystallinity and/or facilitate solid form conversion to the desired form.
# [2] = as above; format: physicochemical; details: Hydrochloric acid, 2 equiv.; Ethanol*; AS Heptane
# In short: (§6)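 XRPD was recorded three times: on damp solids isolated at 5 °C, after ~17–91 h vacuum drying at ~40 °C, and after 24–48 h storage at 40 °C/75% RH. Solids came from stirring free base with 1.0 or 2.0 equiv. counterion at 40 °C, 40–5 °C temperature cycling, and anti-solvent addition.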
# [3] = as above; format: physicochemical; design: key: A = amorphous; Evap. = isolated via evaporation
# In short: as §6
# [4] = as above; format: physicochemical; design: key: A = amorphous; PC = poorly crystalline; 1 = Form 1 Compound 1 hydrogen phosphate; 2 = Form 2 Compound 1 hydrogen phosphate; 3 = Form 3 Compound 1 hydrogen phosphate; 4 = Form 4 Compound 1 hydrogen phosphate; details: Phosphoric acid, 1 equiv.
# Method: as §1, §2, §3, §4, §5
# [5] = Hydrochloric acid, 2 equiv., Ethanol*
# [6] = Hydrochloric acid, 2 equiv., Acetonitrile, AS tBME
# [7] = Hydrochloric acid, 2 equiv., Ethyl acetate, AS Heptane
# [8] = Hydrochloric acid, 2 equiv., IPA:H2O (75:25% v/v), AS tBME
# [9] = Hydrochloric acid, 2 equiv., MEK, AS Heptane
# [10] = Hydrochloric acid, 2 equiv., THF, AS Heptane
# [11] = Phosphoric acid, 1 equiv., Ethyl acetate
# [12] = Phosphoric acid, 1 equiv., Acetonitrile, AS tBME
# [13] = Phosphoric acid, 1 equiv., IPA:H2O (75:25% v/v), AS tBME
smiles,measurement,setting,value
"COc1cc(C(=O)O[C@@H]2CCCOc3cc(cc(OC)c3OC)C(=O)NCCCN3CCCN(CC2)CC3)cc(OC)c1OC [Compound 1, (16R)-9,10-dimethoxy-6-oxo-12-oxa-1,5,19-triazatricyclo[17.3.2.1^7,11]pentacosa-7(25), 8,10-trien-16-yl 3,4,5-trimethoxybenzoate]",decrease of ENT1 activity compared to untreated CD19 positive cells,"ENT1; 1 μM of solutions stored at −20° C. for 6 months, whole blood from 3 healthy donors",No significant effect
same,decrease of ENT1 activity compared to untreated CD19 positive cells,"ENT1; 1 μM, freshly suspended, whole blood from 8 healthy donors",49.8%
"Cl [Hydrochloric acid, 2 equiv.]",XRPD Analysis Damp,[1]; [5],1
same,XRPD Analysis Dry,[1]; [5],1
same,XRPD Analysis 40° C. 75% RH,[2],1 (PC)
same,XRPD Analysis 40° C. 75% RH,[3]; [6],A
same,XRPD Analysis Damp,[3]; [6],A
same,XRPD Analysis Dry,[3]; [6],A
same,XRPD Analysis 40° C. 75% RH,[3]; [7],A
same,XRPD Analysis Damp,[3]; [7],A
same,XRPD Analysis Dry,[3]; [7],A
same,XRPD Analysis 40° C. 75% RH,[3]; [8],A
same,XRPD Analysis Damp,[3]; [8],A
same,XRPD Analysis Dry,[3]; [8],A
same,XRPD Analysis 40° C. 75% RH,[3]; [9],A
same,XRPD Analysis Damp,[3]; [9],A
same,XRPD Analysis Dry,[3]; [9],A
same,XRPD Analysis 40° C. 75% RH,[3]; [10],A
same,XRPD Analysis Damp,[3]; [10],A
same,XRPD Analysis Dry,[3]; [10],A
"O=P(O)(O)O [Phosphoric acid, 1 equiv.]",XRPD Analysis 40° C. 75% RH,"[4]; Acetonitrile, AS tBME",4
same,XRPD Analysis 40° C. 75% RH,"[4]; Ethanol, AS Heptane",1
same,XRPD Analysis Damp,"[4]; Ethanol, AS Heptane",1
same,XRPD Analysis Dry,"[4]; Ethanol, AS Heptane",1
same,XRPD Analysis 40° C. 75% RH,"[4]; Ethyl acetate, AS Heptane",2
same,XRPD Analysis 40° C. 75% RH,"[4]; MEK, AS Heptane",2
same,XRPD Analysis Damp,"[4]; MEK, AS Heptane",3
same,XRPD Analysis Dry,"[4]; MEK, AS Heptane",2
same,XRPD Analysis 40° C. 75% RH,"[4]; THF, AS Heptane",1
same,XRPD Analysis Damp,"[4]; THF, AS Heptane",1
same,XRPD Analysis Dry,"[4]; THF, AS Heptane",1
same,XRPD Analysis Damp,[1]; [11],PC
same,XRPD Analysis Dry,[1]; [11],PC
same,XRPD Analysis Damp,[3]; [12],A
same,XRPD Analysis Dry,[3]; [12],A
same,XRPD Analysis 40° C. 75% RH,[3]; [13],A
same,XRPD Analysis Damp,[3]; [13],A
same,XRPD Analysis Dry,[3]; [13],A
